Measured values: patent publication US20260132132A1, “3A,4,5,6-TETRAHYDRO-1 H-PYRAZOLO[3,4-C]PYRIDIN-7(7AH)-ONE DERIVATIVES AS FACTOR XIIA INHIBITORS” (KALVISTA PHARMACEUTICALS LIMITED, priority 2022, published 2026)

target: T1, Human Factor XIIa (hFXIIa) (Homo sapiens, UniProt P00748); experiment: Determination of Human Factor XIIa (hFXIIa) inhibition, fluorogenic substrate IC50 assay; format: biochemical; details: fluorogenic substrate H-DPro-Phe-Arg-AFC at Km, 25° C., read-out: Human FXIIa IC50
T1 construct: purchased Enzyme Research Laboratories
T1 sequence (P00748 373-615 limits assumed): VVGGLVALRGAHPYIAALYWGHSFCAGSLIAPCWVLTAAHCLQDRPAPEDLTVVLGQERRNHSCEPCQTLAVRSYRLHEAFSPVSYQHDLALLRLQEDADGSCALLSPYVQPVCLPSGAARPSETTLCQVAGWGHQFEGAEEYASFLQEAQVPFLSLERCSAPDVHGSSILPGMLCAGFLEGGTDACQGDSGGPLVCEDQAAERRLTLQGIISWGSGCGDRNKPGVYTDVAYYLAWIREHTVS
T1 sequence (P00748 20-372 partner limits assumed): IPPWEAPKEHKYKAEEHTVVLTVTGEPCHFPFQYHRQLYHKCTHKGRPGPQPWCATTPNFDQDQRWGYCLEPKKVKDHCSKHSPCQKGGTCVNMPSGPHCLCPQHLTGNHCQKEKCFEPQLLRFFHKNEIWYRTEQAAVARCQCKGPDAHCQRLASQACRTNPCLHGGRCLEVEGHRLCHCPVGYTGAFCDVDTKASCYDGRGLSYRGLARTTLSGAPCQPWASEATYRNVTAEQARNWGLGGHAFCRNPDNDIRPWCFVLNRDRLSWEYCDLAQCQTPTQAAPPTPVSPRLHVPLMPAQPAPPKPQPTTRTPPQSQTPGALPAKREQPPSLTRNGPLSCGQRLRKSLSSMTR
Description: Determination of Human Factor XIIa (hFXIIa) inhibition
The Km for the cleavage of the substrate by hFXIIa was determined by standard transformation of the Michaelis-Menten equation, with subsequent inhibition assays performed at substrate Km concentration.

SMILES | IC50
CN1CCc2ccc(N3CCc4c(C(=O)NCC56CC(CO)(CCO5)C6)nn(-c5cccc(Cl)c5)c4C3=O)cc2C1 [Example 1046, 1-(3-chlorophenyl)-N-((5-(hydroxymethyl)-2-oxabicyclo[3.1.1]heptan-1-yl)methyl)-6-(2-methyl-1,2,3,4-tetrahydroisoquinolin-7-yl)-7-oxo-4,5,6,7-tetrahydro-1H-pyrazolo[3,4-c]pyridine-3-carboxamide] | 300 to 1000 nM
Cc1cc(N2CCc3c(C(=O)NCC4CC4)nn(-c4cccc(Cl)c4)c3C2=O)cc2c1CCN(C)C2 [Example 1048, 1-(3-Chlorophenyl)-N-(cyclopropylmethyl)-6-(2,5-dimethyl-1,2,3,4-tetrahydroisoquinolin-7-yl)-7-oxo-4,5,6,7-tetrahydro-1H-pyrazolo[3,4-c]pyridine-3-carboxamide] | 300 to 1000 nM
O=C(NCC1CC1)c1nn(-c2cccc(Cl)c2)c2c1CCN(c1ccc3c(c1)CN(CC(F)(F)F)CC3)C2=O [Example 1071, 1-(3-chlorophenyl)-N-(cyclopropylmethyl)-7-oxo-6-(2-(2,2,2-trifluoroethyl)-1,2,3,4-tetrahydroisoquinolin-7-yl)-4,5,6,7-tetrahydro-1H-pyrazolo[3,4-c]pyridine-3-carboxamide] | 1000 to 3000 nM
CN1CCc2ccc(N3CCc4c(C(=O)NC5(C)CCOCC5)nn(-c5cccc(Cl)c5)c4C3=O)cc2C1 [Example 1064, 1-(3-chlorophenyl)-6-(2-methyl-1,2,3,4-tetrahydroisoquinolin-7-yl)-N-(4-methyltetrahydro-2H-pyran-4-yl)-7-oxo-4,5,6,7-tetrahydro-1H-pyrazolo[3,4-c]pyridine-3-carboxamide] | 300 to 1000 nM
CCN1CCc2ccc(N3CCc4c(C(=O)N[C@@H]5CCOC5)nn(-c5cccc(Cl)c5)c4C3=O)cc2C1 [Example 1091, (R)-1-(3-chlorophenyl)-6-(2-ethyl-1,2,3,4-tetrahydroisoquinolin-7-yl)-7-oxo-N-(tetrahydrofuran-3-yl)-4,5,6,7-tetrahydro-1H-pyrazolo[3,4-c]pyridine-3-carboxamide] | 100 to 300 nM
CN1CCc2ccc(N3CCc4c(C(=O)NC5CCOC5)nn(-c5cccc(Cl)c5)c4C3=O)cc2C1 (stereo not shown) [Example 1042, 1-(3-chlorophenyl)-6-(2-methyl-1,2,3,4-tetrahydroisoquinolin-7-yl)-7-oxo-N-(tetrahydrofuran-3-yl)-4,5,6,7-tetrahydro-1H-pyrazolo[3,4-c]pyridine-3-carboxamide] | 300 to 1000 nM
COCc1nn(-c2cccc(Cl)c2)c2c1CCN(c1ccc3c(c1)CN(C)CC3)C2=O [Example 1066, 1-(3-Chlorophenyl)-3-(methoxymethyl)-6-(2-methyl-1,2,3,4-tetrahydroisoquinolin-7-yl)-1,4,5,6-tetrahydro-7H-pyrazolo[3,4-c]pyridin-7-one] | 1000 to 3000 nM
CCN1CCc2ccc(N3CCc4c(C(=O)NC5C6COCC65)nn(-c5cccc(Cl)c5)c4C3=O)cc2C1 (stereo not shown) [Example 1093, N-(3-oxabicyclo[3.1.0]hexan-6-yl)-1-(3-chlorophenyl)-6-(2-ethyl-1,2,3,4-tetrahydroisoquinolin-7-yl)-7-oxo-4,5,6,7-tetrahydro-1H-pyrazolo[3,4-c]pyridine-3-carboxamide] | 100 to 300 nM
CC1CCCN1Cc1cccc(N2CCc3c(C(=O)NCc4ccccc4)nn(-c4cccc(Cl)c4)c3C2=O)c1 (stereo not shown) [Example 1039, N-benzyl-1-(3-chlorophenyl)-6-(3-((2-methylpyrrolidin-1-yl)methyl)phenyl)-7-oxo-4,5,6,7-tetrahydro-1H-pyrazolo[3,4-c]pyridine-3-carboxamide] | 300 to 1000 nM
O=C(NCC1CC1)c1nn(-c2cccc(Cl)c2)c2c1CCN(c1ccc3c(c1)CN(CCCO)CC3)C2=O [Example 1087, 1-(3-chlorophenyl)-N-(cyclopropylmethyl)-6-(2-(3-hydroxypropyl)-1,2,3,4-tetrahydroisoquinolin-7-yl)-7-oxo-4,5,6,7-tetrahydro-1H-pyrazolo[3,4-c]pyridine-3-carboxamide] | 100 to 300 nM

Continued, values first:

IC50 | SMILES
10000 to 40000 nM | O=C(NCC1CC1)c1nn(-c2cccc(Cl)c2)c2c1CCN(c1cccc(C(=O)N3CCCC3)c1)C2=O [Example 1263, 1-(3-chlorophenyl)-N-(cyclopropylmethyl)-7-oxo-6-(3-(pyrrolidine-1-carbonyl)phenyl)-4,5,6,7-tetrahydro-1H-pyrazolo[3,4-c]pyridine-3-carboxamide]
3000 to 10000 nM | CN(C)C(=O)c1cc(N2CCc3c(C(=O)NCC4CC4)nn(-c4cccc(Cl)c4)c3C2=O)ccn1 [Example 1278, 1-(3-chlorophenyl)-N-(cyclopropylmethyl)-6-(2-(dimethylcarbamoyl)pyridin-4-yl)-7-oxo-4,5,6,7-tetrahydro-1H-pyrazolo[3,4-c]pyridine-3-carboxamide]
300 to 1000 nM | Cc1cccc(-n2nc(C(=O)NCC3CC3)c3c2C(=O)N(c2ccc4c(c2)C(=O)N(C)CC4)CC3)c1 [Example 2011, N-(cyclopropylmethyl)-6-(2-methyl-1-oxo-1,2,3,4-tetrahydroisoquinolin-7-yl)-7-oxo-1-(m-tolyl)-4,5,6,7-tetrahydro-1H-pyrazolo[3,4-c]pyridine-3-carboxamide]
3000 to 10000 nM | O=C(NCC1CC1)c1nn(-c2cccc(Cl)c2)c2c1CCN(c1cccc(N3CCOCC3=O)c1)C2=O [Example 1313, 1-(3-chlorophenyl)-N-(cyclopropylmethyl)-7-oxo-6-(3-(3-oxomorpholino)phenyl)-4,5,6,7-tetrahydro-1H-pyrazolo[3,4-c]pyridine-3-carboxamide]
100 to 300 nM | C[C@H](NC(=O)c1nn(-c2cccc(Cl)c2)c2c1CCN(c1ccc3c(c1)C(=O)N(C)CC3)C2=O)c1cccnc1 [Example 1215, (S)-1-(3-chlorophenyl)-6-(2-methyl-1-oxo-1,2,3,4-tetrahydroisoquinolin-7-yl)-7-oxo-N-(1-(pyridin-3-yl)ethyl)-4,5,6,7-tetrahydro-1H-pyrazolo[3,4-c]pyridine-3-carboxamide]
10 to 100 nM | CN1CCc2ccc(N3CCc4c(C(=O)N[C@H](CO)c5ccccc5)nn(-c5cccc(Cl)c5F)c4C3=O)cc2C1 [Example 2001, (S)-1-(3-chloro-2-fluorophenyl)-N-(2-hydroxy-1-phenylethyl)-6-(2-methyl-1,2,3,4-tetrahydroisoquinolin-7-yl)-7-oxo-4,5,6,7-tetrahydro-1H-pyrazolo[3,4-c]pyridine-3-carboxamide]
300 to 1000 nM | CN1CCc2ccc(N3CCc4c(C(=O)NC[C@H]5C[C@H](O)C5)nn(-c5cccc(Cl)c5)c4C3=O)cc2C1=O [Example 1274, 1-(3-chlorophenyl)-N-(((1r,3r)-3-hydroxycyclobutyl)methyl)-6-(2-methyl-1-oxo-1,2,3,4-tetrahydroisoquinolin-7-yl)-7-oxo-4,5,6,7-tetrahydro-1H-pyrazolo[3,4-c]pyridine-3-carboxamide]
3000 to 10000 nM | Cc1cc(CNC(=O)c2nn(-c3cccc(Cl)c3)c3c2CCN(c2ccc4c(c2)N(C)C(=O)C4(C)C)C3=O)nn1C [Example 1276, 1-(3-chlorophenyl)-N-((1,5-dimethyl-1H-pyrazol-3-yl)methyl)-7-oxo-6-(1,3,3-trimethyl-2-oxoindolin-6-yl)-4,5,6,7-tetrahydro-1H-pyrazolo[3,4-c]pyridine-3-carboxamide]
3000 to 10000 nM | COCCN(C)C(=O)c1cccc(N2CCc3c(C(=O)NCC4CC4)nn(-c4cccc(Cl)c4)c3C2=O)c1 [Example 1311, 1-(3-chlorophenyl)-N-(cyclopropylmethyl)-6-(3-((2-methoxyethyl)(methyl)carbamoyl)phenyl)-7-oxo-4,5,6,7-tetrahydro-1H-pyrazolo[3,4-c]pyridine-3-carboxamide]
